# Biological target: recombinant human ACC2 (Homo sapiens (Human), UniProt O00763)
# Test: Measurement of inhibitory activity on human ACC2 (MALDI-TOF MS, acetyl CoA to malonyl CoA conversion)
# Type: biochemical
# Conditions: Tables 155-159
# In short: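 His-tagged human ACC2 (residues 27–2458) from baculovirus-infected Sf-9 cells was preincubated 1 h in pH 7.4 HEPES-KOH buffer with MgCl2, 6-10 mM potassium citrate, glutathione and BSA. Substrate solution held 1 mM ATP, 0.8 mM acetyl CoA and 25-50 mM bicarbonate. After 1–3 h at room temperature, malonyl CoA/(malonyl+acetyl CoA) was read by negative-mode MALDI-TOF MS; citrate, bicarbonate and time varied by enzyme lot.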
# Sequence of recombinant human ACC2 (O00763 27-2458): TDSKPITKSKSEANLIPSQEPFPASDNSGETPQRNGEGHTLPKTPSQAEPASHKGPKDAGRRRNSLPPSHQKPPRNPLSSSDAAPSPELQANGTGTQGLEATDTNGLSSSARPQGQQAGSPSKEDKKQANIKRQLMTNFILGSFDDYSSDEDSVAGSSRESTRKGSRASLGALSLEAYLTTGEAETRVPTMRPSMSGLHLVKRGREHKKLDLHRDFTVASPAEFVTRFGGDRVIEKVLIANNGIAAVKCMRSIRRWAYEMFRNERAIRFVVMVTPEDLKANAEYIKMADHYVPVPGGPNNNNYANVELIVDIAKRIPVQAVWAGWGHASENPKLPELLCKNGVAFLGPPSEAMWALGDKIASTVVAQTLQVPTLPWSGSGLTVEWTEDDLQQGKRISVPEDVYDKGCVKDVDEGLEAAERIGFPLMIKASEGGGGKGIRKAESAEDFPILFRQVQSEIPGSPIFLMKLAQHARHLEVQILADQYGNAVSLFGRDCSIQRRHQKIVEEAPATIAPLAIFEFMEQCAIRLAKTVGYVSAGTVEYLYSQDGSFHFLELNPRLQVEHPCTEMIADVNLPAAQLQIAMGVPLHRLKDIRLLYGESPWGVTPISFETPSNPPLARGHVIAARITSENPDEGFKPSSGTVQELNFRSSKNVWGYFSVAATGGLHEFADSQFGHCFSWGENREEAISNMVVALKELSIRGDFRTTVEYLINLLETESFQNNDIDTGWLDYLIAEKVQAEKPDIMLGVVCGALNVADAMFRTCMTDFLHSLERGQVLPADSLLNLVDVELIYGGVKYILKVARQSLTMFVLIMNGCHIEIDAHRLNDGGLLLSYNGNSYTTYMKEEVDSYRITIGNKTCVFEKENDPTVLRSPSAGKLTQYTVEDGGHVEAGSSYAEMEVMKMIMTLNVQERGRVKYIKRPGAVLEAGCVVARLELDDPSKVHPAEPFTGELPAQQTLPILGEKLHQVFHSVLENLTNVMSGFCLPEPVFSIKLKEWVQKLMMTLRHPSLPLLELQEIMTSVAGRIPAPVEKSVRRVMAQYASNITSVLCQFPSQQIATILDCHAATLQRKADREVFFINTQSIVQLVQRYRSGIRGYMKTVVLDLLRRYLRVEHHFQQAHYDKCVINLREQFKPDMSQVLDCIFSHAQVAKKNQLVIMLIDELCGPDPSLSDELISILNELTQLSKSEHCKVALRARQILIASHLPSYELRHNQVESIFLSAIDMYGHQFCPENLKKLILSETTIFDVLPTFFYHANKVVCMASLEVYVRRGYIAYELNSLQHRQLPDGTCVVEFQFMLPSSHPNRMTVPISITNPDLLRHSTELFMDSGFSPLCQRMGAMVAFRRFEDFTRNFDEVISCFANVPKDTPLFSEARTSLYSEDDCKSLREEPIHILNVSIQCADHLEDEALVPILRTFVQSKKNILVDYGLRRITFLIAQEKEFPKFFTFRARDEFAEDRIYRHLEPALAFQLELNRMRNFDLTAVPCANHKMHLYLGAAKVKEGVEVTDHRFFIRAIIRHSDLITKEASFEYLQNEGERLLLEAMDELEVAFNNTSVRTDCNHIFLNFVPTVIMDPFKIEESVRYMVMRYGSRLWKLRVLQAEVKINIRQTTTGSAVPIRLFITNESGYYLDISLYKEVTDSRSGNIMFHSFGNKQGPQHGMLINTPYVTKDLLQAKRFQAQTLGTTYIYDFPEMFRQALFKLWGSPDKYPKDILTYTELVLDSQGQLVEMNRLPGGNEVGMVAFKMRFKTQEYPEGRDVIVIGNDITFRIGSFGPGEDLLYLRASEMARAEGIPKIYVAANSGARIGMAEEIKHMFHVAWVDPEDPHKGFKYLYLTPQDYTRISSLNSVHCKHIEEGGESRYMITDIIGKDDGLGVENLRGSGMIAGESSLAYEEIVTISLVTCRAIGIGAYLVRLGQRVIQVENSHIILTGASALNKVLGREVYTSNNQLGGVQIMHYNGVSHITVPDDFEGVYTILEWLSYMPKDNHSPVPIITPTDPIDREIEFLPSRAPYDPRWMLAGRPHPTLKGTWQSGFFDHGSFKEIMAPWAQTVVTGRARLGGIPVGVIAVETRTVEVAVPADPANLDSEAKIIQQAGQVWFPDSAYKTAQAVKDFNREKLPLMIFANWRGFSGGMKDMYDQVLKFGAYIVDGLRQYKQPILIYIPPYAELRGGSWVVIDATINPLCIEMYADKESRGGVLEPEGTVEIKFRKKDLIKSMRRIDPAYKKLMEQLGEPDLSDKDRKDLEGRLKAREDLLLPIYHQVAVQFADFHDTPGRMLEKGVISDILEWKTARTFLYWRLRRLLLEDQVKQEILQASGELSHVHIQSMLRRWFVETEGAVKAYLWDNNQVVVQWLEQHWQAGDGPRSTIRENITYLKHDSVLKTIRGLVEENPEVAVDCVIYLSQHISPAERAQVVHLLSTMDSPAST
row,IC50,SMILES
1,43 nM,CC(=O)N[C@@H](C)CO[C@H]1C[C@H](COc2ncnc(OCc3ccc(C)cn3)c2Cl)C1 [Compound I-403]
2,676 nM,COc1cccc(COc2ncnc(OC[C@H]3C[C@H](OC[C@H](C)NC(C)=O)C3)c2Cl)n1 [Compound I-404]
3,62 nM,CC(=O)N[C@@H](C)CO[C@H]1C[C@H](COc2ncnc(OCc3ncccc3F)c2Cl)C1 [Compound I-405]
4,131 nM,CC(=O)N[C@@H](C)CO[C@H]1C[C@H](COc2ncnc(OCc3cnccn3)c2Cl)C1 [Compound I-406]
5,533 nM,CCOc1ccc(COc2ncnc(OC[C@H]3C[C@H](OC[C@H](C)NC(C)=O)C3)c2Cl)cc1 [Compound I-407]
6,465 nM,CCOc1cccc(COc2ncnc(OC[C@H]3C[C@H](OC[C@H](C)NC(C)=O)C3)c2Cl)c1 [Compound I-408]
7,74 nM,CC(=O)N[C@@H](C)CO[C@H]1C[C@H](COc2ncnc(OCc3nccs3)c2Cl)C1 [Compound I-409]
8,15 nM,CC(=O)N[C@@H](C)CO[C@H]1C[C@H](COc2ncnc(OCc3ncc(C)s3)c2Cl)C1 [Compound I-410]
9,937 nM,CC(=O)N[C@@H](C)CO[C@H]1C[C@H](COc2ncnc(OCc3csc(Cl)n3)c2Cl)C1 [Compound I-411]
10,42 nM,CC(=O)N[C@@H](C)CO[C@H]1C[C@H](COc2ncnc(OCc3cscn3)c2Cl)C1 [Compound I-412]
11,84 nM,CC(=O)N[C@@H](C)CO[C@H]1C[C@H](COc2nccc(N(C)Cc3ccccc3)c2Cl)C1 [Compound I-413]
12,59 nM,CC(=O)N[C@@H](C)CO[C@H]1C[C@H](COc2nccc(N3CCCC3C)c2Cl)C1 (some centres unmarked) [Compound I-414]
13,18 nM,CC(=O)N[C@@H](C)CO[C@H]1C[C@H](COc2ncnc(OCc3ccccc3)c2C)C1 [Compound I-415]
14,90 nM,CC(=O)N[C@@H](C)CO[C@H]1C[C@H](COc2ncnc(/C=C/c3ccccc3)c2C)C1 [Compound I-416]
15,451 nM,CC(=O)N[C@@H](C)CO[C@H]1C[C@H](COc2ncnc(-c3ccc(F)cc3)c2C)C1 [Compound I-417]
16,733 nM,CC(=O)N[C@@H](C)CO[C@H]1C[C@H](COc2ncnc(-c3ccc(C(F)(F)F)cc3)c2C)C1 [Compound I-418]
17,109 nM,CC(=O)N[C@@H](C)CO[C@H]1C[C@H](COc2ncnc(C3=CCCCC3)c2C)C1 [Compound I-419]
18,447 nM,COc1ccc(-c2ncnc(OC[C@H]3C[C@H](OC[C@H](C)NC(C)=O)C3)c2C)cc1 [Compound I-420]
19,24 nM,CC(=O)N[C@@H](C)CO[C@H]1C[C@H](COc2ncnc(OCC3CC3)c2C)C1 [Compound I-421]
20,358 nM,CC(=O)N[C@@H](C)CO[C@H]1C[C@H](COc2nccc(OC3CC(F)(F)C3)c2Cl)C1 [Compound I-422]
21,122 nM,CC(=O)N[C@@H](C)CO[C@H]1C[C@H](COc2nsc3ccccc23)C1 [Compound I-424]
22,170 nM,CC(=O)N[C@@H](C)CO[C@H]1C[C@H](COc2ncnc3c2c(I)cn3CC2CC2)C1 [Compound I-425]
23,57 nM,CC(=O)N[C@@H](C)CO[C@H]1C[C@H](COc2ncnc3c2c(C)cn3CC2CC2)C1 [Compound I-426]
24,270 nM,CC(=O)N[C@@H](C)CO[C@H]1C[C@H](COc2ncnc3c2c(C#N)cn3CC2CC2)C1 [Compound I-427]

row,IC50,SMILES
1,53 nM,CC(=O)N[C@@H](C)CO[C@H]1C[C@H](COc2nccc3c2cnn3CC2CCC2)C1 [Compound I-428]
2,26 nM,CC(=O)N[C@@H](C)CO[C@H]1C[C@H](COc2ncnc(COc3ccccc3)c2Cl)C1 [Compound I-429]
3,12 nM,CC(=O)N[C@@H](C)CO[C@H]1C[C@H](COc2ncnc3c2ccn3Cc2ccccc2)C1 [Compound I-430]
4,809 nM,CC(=O)N[C@@H](C)CO[C@H]1C[C@H](COc2ncnc(OCc3ncco3)c2Cl)C1 [Compound I-431]
5,588 nM,CC(=O)N[C@@H](C)CO[C@H]1C[C@H](COc2ncnc3c2ccn3Cc2ccccn2)C1 [Compound I-432]
6,11 nM,CC(=O)N[C@@H](C)CO[C@H]1C[C@H](COc2nccc(NC(=O)C3CCCCC3)c2Cl)C1 [Compound I-433]
7,653 nM,CC(=O)N[C@@H](C)CO[C@H]1C[C@H](COc2ncnc3c2ccn3Cc2cccnc2)C1 [Compound I-434]
8,7 nM,CC(=O)N[C@@H](C)CO[C@H]1C[C@H](COc2ncnc(OCc3ccccn3)c2Cl)C1 [Compound I-435]
9,4 nM,CC(=O)N[C@@H](C)CO[C@H]1C[C@@H](COc2ncnc(OCc3ccccn3)c2Cl)C1 [Compound I-436]
10,19 nM,CC(=O)N[C@@H](C)CO[C@H]1C[C@H](COc2ncnc(OCc3cc(C(F)(F)F)ccn3)c2Cl)C1 [Compound I-437]
11,4 nM,CC(=O)N[C@@H](C)CO[C@H]1C[C@H](COc2ncnc(OCc3ncc(Cl)s3)c2Cl)C1 [Compound I-439]
12,19 nM,CC(=O)N[C@@H](C)CO[C@H]1C[C@H](COc2ncnc3c2c(F)cn3CC2CC2(F)F)C1 (some centres unmarked) [Compound I-440]
13,12 nM,CC(=O)N[C@@H](C)CO[C@H]1C[C@H](COc2ncnc(OCc3ncc(F)s3)c2Cl)C1 [Compound I-441]
14,35 nM,CC(=O)N[C@@H](C)CO[C@H]1C[C@H](Oc2nccc3c(OCC4CC4)nccc23)C1 [Compound I-442]
15,240 nM,CC(=O)N[C@@H](C)CO[C@H]1C[C@H](COc2ncnc(OCc3nnc(C(F)(F)F)s3)c2Cl)C1 [Compound I-443]
16,51 nM,CC(=O)N[C@@H](C)CO[C@H]1C[C@H](COc2ncnc3c2ccn3CCC2CC2)C1 [Compound I-444]
17,14 nM,CC(=O)N[C@@H](C)CO[C@H]1C[C@H](Oc2nccc3c(OCc4ccccc4)nccc23)C1 [Compound I-445]
18,77 nM,CC(=O)N[C@@H](C)CO[C@H]1CC[C@H](Oc2ncnc(OCc3ccc(F)cn3)c2Cl)CC1 [Compound I-446]
19,76 nM,CC(=O)N[C@@H](C)CO[C@H]1C[C@H](COc2nc(C)nc3c2ccn3CC2CC2)C1 [Compound I-447]
20,400 nM,CC(=O)N[C@@H](C)CO[C@H]1C[C@H](COc2ncnc3c2ccn3-c2ccccc2)C1 [Compound I-448]
21,51 nM,CC(=O)N[C@@H](C)CO[C@H]1C[C@H](COc2ncnc3c2ccn3CC2CCCCC2)C1 [Compound I-449]
22,14 nM,CC(=O)N[C@@H](C)CO[C@H]1C[C@H](COc2ncnc3c2c(F)cn3CC2CC2)C1 [Compound I-450]
23,40 nM,CC(=O)N[C@@H](C)CO[C@H]1C[C@H](COc2ncnc3c2ccn3C2CCCCC2)C1 [Compound I-451]
24,109 nM,CC(=O)N[C@@H](C)CO[C@H]1C[C@H](COc2ncnc(NC(=O)c3ccccc3)c2Cl)C1 [Compound I-452]

row,IC50,SMILES
1,610 nM,CCn1ccc2c(OC[C@H]3C[C@H](OC[C@H](C)NC(C)=O)C3)ncnc21 [Compound I-453]
2,87 nM,CC(=O)N[C@@H](C)CO[C@H]1C[C@H](COc2ncnc3c2cc(C)n3CC2CC2)C1 [Compound I-454]
3,50 nM,CC(=O)N[C@@H](C)CO[C@H]1CC[C@H](Oc2ncnc(OCc3ncc(Cl)s3)c2Cl)CC1 [Compound I-455]
4,280 nM,CC(=O)N[C@@H](C)CO[C@H]1C[C@H](c2nc3cnc(OCc4ccccc4)cc3o2)C1 [Compound I-456]
5,19 nM,CC(=O)N[C@@H](C)CO[C@]1(C)C[C@@H](COc2ncnc(OCc3ccc(F)cn3)c2Cl)C1 [Compound I-457]
6,32 nM,CC(=O)N[C@@H](C)CO[C@H]1C[C@H](COc2nccc3c2CCN3CC2CC2)C1 [Compound I-458]
7,16 nM,CC(=O)N[C@@H](C)CO[C@H]1C[C@H](COc2ncnc(OCc3ccc(F)cn3)c2F)C1 [Compound I-459]
8,4 nM,CC(=O)N[C@@H](C)CO[C@H]1C[C@H](COc2ncnc(OCc3cc(Cl)ccn3)c2F)C1 [Compound I-460]
9,4 nM,CC(=O)N[C@@H](C)CO[C@H]1C[C@H](COc2ncnc(OCc3ccc(F)cc3)c2F)C1 [Compound I-461]
10,90 nM,CC(=O)N[C@@H](C)CO[C@H]1C[C@H](COc2ncnc(-c3nc4ccccc4o3)c2Cl)C1 [Compound I-462]
11,17 nM,CC(=O)N[C@@H](C)CO[C@H]1C[C@H](COc2ncnc(OCC3CCCCO3)c2Cl)C1 (some centres unmarked) [Compound I-463]
12,36 nM,CC(=O)N[C@@H](C)CO[C@H]1C[C@H](COc2ncnc(OCc3cncs3)c2Cl)C1 [Compound I-464]
13,160 nM,CC(=O)N[C@@H](C)CO[C@H]1C[C@H](COc2nccc3c2cnn3CC2CC2(F)F)C1 (some centres unmarked) [Compound I-465]
14,179 nM,CC(=O)N[C@@H](C)CO[C@H]1C[C@H](COc2ncnc(OC3(c4ccccc4)CC3)c2Cl)C1 [Compound I-466]
15,7 nM,CC(=O)N[C@@H](C)CO[C@H]1C[C@H](COc2ncnc(OCc3ccc(Cl)cn3)c2F)C1 [Compound I-467]
16,368 nM,CC(=O)N[C@@H](C)CO[C@H]1C[C@H](COc2ncnc(NC(=O)C3CCCCC3)c2Cl)C1 [Compound I-468]
17,596 nM,CC(=O)N[C@@H](C)CO[C@H]1C[C@H](Cn2ccc3c(OCc4ccccc4)ncnc32)C1 [Compound I-469]
18,426 nM,CC(=O)N[C@@H](C)CO[C@H]1C[C@H](Cn2ccc3c(OCc4cc(Cl)ccn4)ncnc32)C1 [Compound I-470]
19,159 nM,CC(=O)N[C@@H](C)CO[C@H]1C[C@H](COc2ncnc3c2ccn3C(C)C)C1 [Compound I-471]
20,26 nM,CC(=O)N[C@@H](C)CO[C@H]1C[C@H](COc2ncnc3c2ccn3Cc2ccccc2F)C1 [Compound I-472]
21,28 nM,CC(=O)N[C@@H](C)CO[C@H]1C[C@H](COc2ncnc3c2ccn3Cc2cccc(F)c2)C1 [Compound I-473]
22,16 nM,CC(=O)N[C@@H](C)CO[C@H]1C[C@H](COc2ncnc3c2ccn3Cc2ccc(F)cc2)C1 [Compound I-474]
23,540 nM,CC(=O)N[C@@H](C)CO[C@H]1C[C@H](COc2ccc3nc(OC4CC4)n(C)c3n2)C1 [Compound I-475]
